These results are taken from patent publication US12043632B2, “6-heteroaryloxy benzimidazoles and azabenzimidazoles as JAK2 inhibitors” (Ajax Therapeutics, Inc., priority 2020, dated 2024).

Some results are limits rather than exact numbers.

T1 sequence (O60674 849-1124 Y1007F/Y1008F limits assumed): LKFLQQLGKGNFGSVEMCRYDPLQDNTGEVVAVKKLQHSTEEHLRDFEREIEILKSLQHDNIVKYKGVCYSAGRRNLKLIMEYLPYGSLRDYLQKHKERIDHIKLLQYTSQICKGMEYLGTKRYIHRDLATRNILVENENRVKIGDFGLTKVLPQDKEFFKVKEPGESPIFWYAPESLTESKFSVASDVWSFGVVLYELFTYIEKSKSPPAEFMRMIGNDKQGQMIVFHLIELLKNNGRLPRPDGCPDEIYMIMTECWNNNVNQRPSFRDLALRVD

This assay concerns the target T1, JAK2 (JH1domain-catalytic, Y1007F,Y1008F) kinase (Homo sapiens, UniProt O60674, Y1007F/Y1008F).
T1 construct: JAK2 (JH1domain-catalytic, Y1007F,Y1008F) kinase was expressed as N-terminal fusion; made in house; host or cells: transiently transfected HEK293 cells
The assay is described as follows: JAK2 JH1 Domain Binding Assay. Conditions: qPCR readout. (Real-time PCR tracks product formation cycle by cycle.)
`CNc1nccn2ncc(Oc3cnc4nc(Nc5cc6c(c(C(F)(F)F)c5)C(C)(C)N(C)C6=O)n(C)c4c3C#N)c12` [Example I-240, 1-methyl-6-((4-(methylamino)pyrazolo[1,5-a]pyrazin-3-yl)oxy)-2-((1,1,2-trimethyl-3-oxo-7-(trifluoromethyl)isoindolin-5-yl)amino)-1H-imidazo[4,5-b]pyridine-7-carbonitrile]: the Kd (as a rule, the equilibrium constant for the complex coming apart) is 0.05 to 1 µM.
The molecule `CNc1nccn2ncc(Oc3cnc4nc(Nc5cc(OC[C@@H]6CCCN6C)cc(C(F)(F)F)c5)n(C)c4c3Cl)c12` [Example I-241, (S)-7-chloro-1-methyl-6-((4-(methylamino)pyrazolo[1,5-a]pyrazin-3-yl)oxy)-N-(3-((1-methylpyrrolidin-2-yl)methoxy)-5-(trifluoromethyl)phenyl)-1H-imidazo[4,5-b]pyridin-2-amine] returned a Kd of less than 0.01 µM.
Under `CNc1nccn2ncc(Oc3cnc4nc(Nc5cc(OC[C@H]6CCCN6C)cc(C(F)(F)F)c5)n(C)c4c3Cl)c12` [Example I-242, (R)-7-chloro-1-methyl-6-((4-(methylamino)pyrazolo[1,5-a]pyrazin-3-yl)oxy)-N-(3-((1-methylpyrrolidin-2-yl)methoxy)-5-(trifluoromethyl)phenyl)-1H-imidazo[4,5-b]pyridin-2-amine] stands less than 0.01 µM; under `CN1CCC[C@H]1COc1cc(Nc2nc3ncc(Oc4cnn5ccncc45)c(Cl)c3n2C)cc(C(F)(F)F)c1` [Example I-243, (S)-7-chloro-1-methyl-N-(3-((1-methylpyrrolidin-2-yl)methoxy)-5-(trifluoromethyl)phenyl)-6-(pyrazolo[1,5-a]pyrazin-3-yloxy)-1H-imidazo[4,5-b]pyridin-2-amine], less than 0.01 µM.
Molecule `CN1CCC[C@@H]1COc1cc(Nc2nc3ncc(Oc4cnn5ccncc45)c(Cl)c3n2C)cc(C(F)(F)F)c1` [Example I-244, (R)-7-chloro-1-methyl-N-(3-((1-methylpyrrolidin-2-yl)methoxy)-5-(trifluoromethyl)phenyl)-6-(pyrazolo[1,5-a]pyrazin-3-yloxy)-1H-imidazo[4,5-b]pyridin-2-amine] returned a Kd of less than 0.01 µM.
Molecule `CNc1nccn2ncc(Oc3cnc4nc(Nc5cc(CN6CC(F)C6)cc(C(F)(F)F)c5)n(C)c4c3Cl)c12` [Example I-246, 7-chloro-N-(3-((3-fluoroazetidin-1-yl)methyl)-5-(trifluoromethyl)phenyl)-1-methyl-6-((4-(methylamino)pyrazolo[1,5-a]pyrazin-3-yl)oxy)-1H-imidazo[4,5-b]pyridin-2-amine] had a Kd of 0.01 to 0.05 µM.
For `CNc1nccn2ncc(Oc3cnc4nc(Nc5cc(CN6CC(OC)C6)cc(C(F)(F)F)c5)n(C)c4c3Cl)c12` [Example I-247, 7-chloro-N-(3-((3-methoxyazetidin-1-yl)methyl)-5-(trifluoromethyl)phenyl)-1-methyl-6-((4-(methylamino)pyrazolo[1,5-a]pyrazin-3-yl)oxy)-1H-imidazo[4,5-b]pyridin-2-amine], the Kd lay in the range of 0.01 to 0.05 µM.
With `Cn1cc(C(F)(F)F)cc(Nc2nc3ncc(Oc4cnn5ccnc(NCCN6CCOCC6)c45)c(Cl)c3n2C)c1=O` [Example I-248, 3-((7-chloro-1-methyl-6-((4-((2-morpholinoethyl)amino)pyrazolo[1,5-a]pyrazin-3-yl)oxy)-1H-imidazo[4,5-b]pyridin-2-yl)amino)-1-methyl-5-(trifluoromethyl)pyridin-2(1H)-one], the Kd was less than 0.01 µM.
`CNc1nccn2ncc(Oc3cnc4nc(Nc5cc(CN6CC[C@H](OC)C6)cc(C(F)(F)F)c5)n(C)c4c3Cl)c12` [Example I-249, (S)-7-chloro-N-(3-((3-methoxypyrrolidin-1-yl)methyl)-5-(trifluoromethyl)phenyl)-1-methyl-6-((4-(methylamino)pyrazolo[1,5-a]pyrazin-3-yl)oxy)-1H-imidazo[4,5-b]pyridin-2-amine] yielded a Kd of 0.01 to 0.05 µM.
As for `CNc1nccn2ncc(Oc3cnc4nc(Nc5cc(CN6CC[C@@H](OC)C6)cc(C(F)(F)F)c5)n(C)c4c3Cl)c12` [Example I-250, (R)-7-chloro-N-(3-((3-methoxypyrrolidin-1-yl)methyl)-5-(trifluoromethyl)phenyl)-1-methyl-6-((4-(methylamino)pyrazolo[1,5-a]pyrazin-3-yl)oxy)-1H-imidazo[4,5-b]pyridin-2-amine], the figure is 0.01 to 0.05 µM; as for `CNc1nccn2ncc(Oc3cnc4nc(Nc5cc(C(C)(C)C)n([C@H]6CCN(C)C6)n5)n(C)c4c3Cl)c12` [Example I-251, (S)—N-(5-(tert-butyl)-1-(1-methylpyrrolidin-3-yl)-1H-pyrazol-3-yl)-7-chloro-1-methyl-6-((4-(methylamino)pyrazolo[1,5-a]pyrazin-3-yl)oxy)-1H-imidazo[4,5-b]pyridin-2-amine], less than 0.01 µM; as for `CNc1nccn2ncc(Oc3cnc4nc(Nc5cc(C(C)(C)C)n([C@@H]6CCN(C)C6)n5)n(C)c4c3Cl)c12` [Example I-252, (R)—N-(5-(tert-butyl)-1-(1-methylpyrrolidin-3-yl)-1H-pyrazol-3-yl)-7-chloro-1-methyl-6-((4-(methylamino)pyrazolo[1,5-a]pyrazin-3-yl)oxy)-1H-imidazo[4,5-b]pyridin-2-amine], 0.01 to 0.05 µM.
Under `Cc1nc(Nc2nc3ncc(Oc4cnn5ccncc45)c(Cl)c3n2C)nc(C)c1C1CCCC1` [Example I-253, 7-chloro-N-(5-cyclopentyl-4,6-dimethylpyrimidin-2-yl)-1-methyl-6-(pyrazolo[1,5-a]pyrazin-3-yloxy)-1H-imidazo[4,5-b]pyridin-2-amine] stands less than 0.01 µM; under `CNc1nccn2ncc(Oc3cnc4nc(Nc5cc(C6CCN(C)CC6)cc(C(F)(F)F)c5)n(C)c4c3Cl)c12` [Example I-254, 7-chloro-1-methyl-6-((4-(methylamino)pyrazolo[1,5-a]pyrazin-3-yl)oxy)-N-(3-(1-methylpiperidin-4-yl)-5-(trifluoromethyl)phenyl)-1H-imidazo[4,5-b]pyridin-2-amine], less than 0.01 µM; under `CNc1nccn2ncc(Oc3cnc4nc(Nc5cc(CN(C)C)cc(C(F)(F)F)c5)n(C)c4c3Cl)c12` [Example I-255, 7-chloro-N-(3-((dimethylamino)methyl)-5-(trifluoromethyl)phenyl)-1-methyl-6-((4-(methylamino)pyrazolo[1,5-a]pyrazin-3-yl)oxy)-1H-imidazo[4,5-b]pyridin-2-amine], less than 0.01 µM.
On to `Cn1c(Nc2cc(CN3CCC3)cc(C(F)(F)F)c2)nc2ncc(Oc3cnn4ccncc34)c(Cl)c21` [Example I-256, N-(3-(azetidin-1-ylmethyl)-5-(trifluoromethyl)phenyl)-7-chloro-1-methyl-6-(pyrazolo[1,5-a]pyrazin-3-yloxy)-1H-imidazo[4,5-b]pyridin-2-amine], for which the Kd is less than 0.01 µM.
As for `Cn1c(Nc2cc(CN3CC(O)C3)cc(C(F)(F)F)c2)nc2ncc(Oc3cnn4ccncc34)c(Cl)c21` [Example I-258, 1-(3-((7-chloro-1-methyl-6-(pyrazolo[1,5-a]pyrazin-3-yloxy)-1H-imidazo[4,5-b]pyridin-2-yl)amino)-5-(trifluoromethyl)benzyl)azetidin-3-ol], the figure is less than 0.01 µM; as for `CNc1nccn2ncc(Oc3cnc4nc(Nc5cc(OC6CN(C)C6)cc(C(F)(F)F)c5)n(C)c4c3Cl)c12` [Example I-259, 7-chloro-1-methyl-6-((4-(methylamino)pyrazolo[1,5-a]pyrazin-3-yl)oxy)-N-(3-((1-methylazetidin-3-yl)oxy)-5-(trifluoromethyl)phenyl)-1H-imidazo[4,5-b]pyridin-2-amine], 0.01 to 0.05 µM.
`Cn1cc(C(F)(F)F)cc(Nc2nc3ncc(Oc4cnc5[nH]ncc5c4)c(C#N)c3n2C)c1=O` [Example I-260, 6-((1H-pyrazolo[3,4-b]pyridin-5-yl)oxy)-1-methyl-2-((1-methyl-2-oxo-5-(trifluoromethyl)-1,2-dihydropyridin-3-yl)amino)-1H-imidazo[4,5-b]pyridine-7-carbonitrile] returned a Kd of less than 0.01 µM.
As for `Cn1cc(C(F)(F)F)cc(Nc2nc3ncc(Oc4cnc5[nH]ncc5c4)c(Cl)c3n2C)c1=O` [Example I-261, 3-((6-((1H-pyrazolo[3,4-b]pyridin-5-yl)oxy)-7-chloro-1-methyl-1H-imidazo[4,5-b]pyridin-2-yl)amino)-1-methyl-5-(trifluoromethyl)pyridin-2(1H)-one], the figure is less than 0.01 µM.
Take `CNc1nccn2ncc(Oc3cnc4nc(Nc5cc(CN6CCC6)cc(C(F)(F)F)c5)n(C)c4c3Cl)c12` [Example I-263, N-(3-(azetidin-1-ylmethyl)-5-(trifluoromethyl)phenyl)-7-chloro-1-methyl-6-((4-(methylamino)pyrazolo[1,5-a]pyrazin-3-yl)oxy)-1H-imidazo[4,5-b]pyridin-2-amine]: the Kd was less than 0.01 µM.
`CNc1nccn2ncc(Oc3cnc4nc(Nc5cc(CN6CC(O)C6)cc(C(F)(F)F)c5)n(C)c4c3Cl)c12` [Example I-264, 1-(3-((7-chloro-1-methyl-6-((4-(methylamino)pyrazolo[1,5-a]pyrazin-3-yl)oxy)-1H-imidazo[4,5-b]pyridin-2-yl)amino)-5-(trifluoromethyl)benzyl)azetidin-3-ol] displayed a Kd of 0.01 to 0.05 µM.
As for `Cn1cc(C(F)(F)F)cc(Nc2nc3ncc(Oc4cnc5[nH]ccc5c4)c(C#N)c3n2C)c1=O` [Example I-265, 6-((1H-pyrrolo[2,3-b]pyridin-5-yl)oxy)-1-methyl-2-((1-methyl-2-oxo-5-(trifluoromethyl)-1,2-dihydropyridin-3-yl)amino)-1H-imidazo[4,5-b]pyridine-7-carbonitrile], the figure is less than 0.01 µM.
Under `Cn1c(F)c(C2CC2)cc(Nc2nc3ncc(Oc4cnn5ccncc45)c(Cl)c3n2C)c1=O` [Example I-266, 3-((7-chloro-1-methyl-6-(pyrazolo[1,5-a]pyrazin-3-yloxy)-1H-imidazo[4,5-b]pyridin-2-yl)amino)-5-cyclopropyl-6-fluoro-1-methylpyridin-2(1H)-one] stands less than 0.01 µM; under `Cc1nc(Nc2nc3ncc(Oc4cnn5ccncc45)c(Cl)c3n2C)nc(C)c1N1CCC1` [Example I-268, N-(5-(azetidin-1-yl)-4,6-dimethylpyrimidin-2-yl)-7-chloro-1-methyl-6-(pyrazolo[1,5-a]pyrazin-3-yloxy)-1H-imidazo[4,5-b]pyridin-2-amine], 0.05 to 1 µM.
